Experimental data as given in article PMC4391943, “Novel Epigallocatechin-3-Gallate (EGCG) Derivative as a New Therapeutic Strategy for Reducing Neuropathic Pain after Chronic Constriction Nerve Injury in Mice” (PLoS ONE, 2015).

Tests used:
TNF-α, IL-1β and IL-6 = test: Quantitative RT-PCR of cytokine mRNA in the dorsal horn of the spinal cord; format: in vivo, mice; conditions: 50 mg/Kg
Protocol: Total RNA was isolated from dorsal horn of spinal cord segments distal to T12 vertebra of all groups (n = 5 mice per group) using the Total RNA isolation nucleospin RNA II Kit. Purified RNA (600 ng) was reverse transcribed using the StrataScript First Strand cDNA Synthesis System. The cDNA synthesis was performed at 42°C for 60 minutes according to the manufacturer’s instructions. The cDNA was then analyzed by quantitative RT-PCR using the following TaqMan Gene Expression Assays (Applied Biosystems, Foster City, CA): 18S, HS99999901_s1; TNF-α, Mm00443258_m1; IL-1β, Mm00434228_m1; IL-6, Mm00446190_m1. The RT-PCR was performed as previously described. Analysis and quantification was obtained with the comparative quantification analysis program of the Mx-Pro Q-PCR Analysis software version 3.0 (Strategene).

[1] = target: T1, fatty acid synthase (FASN) (Mus musculus, UniProt P19096); test: Fatty acid synthase activity in the dorsal horn of the spinal cord of treated CCI-mice (NADPH oxidation, A340); format: in vivo; conditions: 50 mg/Kg, n = 5; for FASN activity, % of vehicle group: 14 dpi
T1 construct: The dorsal horn of the spinal cord tissue was homogenized in lysis buffer; from tissue; host or cells: dorsal horn of the spinal cord of female Balb-c mice (CCI model)
T1 sequence (P19096 whole entry): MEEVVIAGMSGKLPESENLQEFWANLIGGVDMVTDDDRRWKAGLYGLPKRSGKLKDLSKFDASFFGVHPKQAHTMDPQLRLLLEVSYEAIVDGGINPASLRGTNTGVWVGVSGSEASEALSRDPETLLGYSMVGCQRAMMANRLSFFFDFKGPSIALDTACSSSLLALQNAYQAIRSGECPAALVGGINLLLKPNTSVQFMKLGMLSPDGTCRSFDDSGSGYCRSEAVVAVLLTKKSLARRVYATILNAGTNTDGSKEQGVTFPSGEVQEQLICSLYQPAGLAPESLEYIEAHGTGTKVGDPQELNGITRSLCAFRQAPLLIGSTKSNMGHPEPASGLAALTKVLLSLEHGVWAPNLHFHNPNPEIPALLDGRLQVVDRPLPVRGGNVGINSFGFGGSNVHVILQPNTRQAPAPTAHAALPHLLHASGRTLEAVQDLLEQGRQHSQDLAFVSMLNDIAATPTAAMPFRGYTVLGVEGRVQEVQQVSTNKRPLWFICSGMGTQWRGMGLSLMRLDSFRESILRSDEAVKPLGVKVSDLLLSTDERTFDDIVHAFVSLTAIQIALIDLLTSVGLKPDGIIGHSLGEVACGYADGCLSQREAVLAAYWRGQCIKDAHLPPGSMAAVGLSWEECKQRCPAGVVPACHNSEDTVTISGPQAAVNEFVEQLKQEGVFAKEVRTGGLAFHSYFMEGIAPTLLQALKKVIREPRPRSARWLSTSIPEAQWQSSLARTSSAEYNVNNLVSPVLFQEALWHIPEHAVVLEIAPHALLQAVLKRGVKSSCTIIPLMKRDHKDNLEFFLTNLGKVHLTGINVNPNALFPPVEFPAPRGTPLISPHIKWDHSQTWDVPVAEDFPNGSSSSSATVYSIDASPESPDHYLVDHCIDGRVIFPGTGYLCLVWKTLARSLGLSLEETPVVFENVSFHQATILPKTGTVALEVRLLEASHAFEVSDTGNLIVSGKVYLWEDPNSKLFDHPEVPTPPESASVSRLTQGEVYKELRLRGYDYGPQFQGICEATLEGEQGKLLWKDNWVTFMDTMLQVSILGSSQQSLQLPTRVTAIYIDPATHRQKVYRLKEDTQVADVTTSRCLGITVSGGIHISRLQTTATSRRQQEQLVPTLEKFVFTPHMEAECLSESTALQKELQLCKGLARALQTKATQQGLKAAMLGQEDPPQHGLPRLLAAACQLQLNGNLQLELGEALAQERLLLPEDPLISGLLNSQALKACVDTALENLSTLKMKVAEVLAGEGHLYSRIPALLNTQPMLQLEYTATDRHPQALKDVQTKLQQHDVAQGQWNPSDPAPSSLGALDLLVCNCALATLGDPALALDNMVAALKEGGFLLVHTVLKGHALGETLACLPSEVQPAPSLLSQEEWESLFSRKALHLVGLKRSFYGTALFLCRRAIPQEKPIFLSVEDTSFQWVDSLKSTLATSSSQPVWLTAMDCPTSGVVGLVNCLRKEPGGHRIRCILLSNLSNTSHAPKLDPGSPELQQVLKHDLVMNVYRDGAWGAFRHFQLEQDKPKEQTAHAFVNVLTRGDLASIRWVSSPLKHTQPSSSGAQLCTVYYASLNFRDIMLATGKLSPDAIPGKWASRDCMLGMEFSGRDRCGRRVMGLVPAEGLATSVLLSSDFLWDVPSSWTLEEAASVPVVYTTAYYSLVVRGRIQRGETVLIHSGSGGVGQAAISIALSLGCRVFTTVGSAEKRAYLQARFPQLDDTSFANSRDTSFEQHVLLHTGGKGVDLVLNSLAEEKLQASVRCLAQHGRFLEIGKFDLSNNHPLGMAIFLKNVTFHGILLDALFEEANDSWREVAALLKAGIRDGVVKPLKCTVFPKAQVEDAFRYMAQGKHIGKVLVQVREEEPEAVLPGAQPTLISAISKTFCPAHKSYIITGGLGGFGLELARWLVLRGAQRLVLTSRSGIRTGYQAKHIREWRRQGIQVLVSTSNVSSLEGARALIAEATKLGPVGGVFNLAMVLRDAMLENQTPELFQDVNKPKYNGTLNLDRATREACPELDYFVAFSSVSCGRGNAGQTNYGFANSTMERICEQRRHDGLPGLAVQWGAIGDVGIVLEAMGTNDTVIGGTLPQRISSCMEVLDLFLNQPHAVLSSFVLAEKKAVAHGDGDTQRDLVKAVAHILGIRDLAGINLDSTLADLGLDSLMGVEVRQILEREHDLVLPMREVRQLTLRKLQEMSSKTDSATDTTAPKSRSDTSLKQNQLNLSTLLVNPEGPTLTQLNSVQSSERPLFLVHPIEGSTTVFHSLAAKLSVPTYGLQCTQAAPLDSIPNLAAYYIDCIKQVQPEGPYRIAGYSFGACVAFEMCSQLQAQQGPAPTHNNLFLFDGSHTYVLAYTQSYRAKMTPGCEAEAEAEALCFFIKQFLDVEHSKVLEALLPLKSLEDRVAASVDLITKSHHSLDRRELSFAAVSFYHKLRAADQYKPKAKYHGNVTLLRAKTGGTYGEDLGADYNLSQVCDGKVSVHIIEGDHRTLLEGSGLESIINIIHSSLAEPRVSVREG
Protocol: For dose response studies, EGCG and the two synthetic EGCG derivatives compound 23 and compound 30 were administered by intra-peritoneal injection at 10, 30, 50 and 100 mg/Kg (n = 5 mice/compound/dose), 30 minutes after the CCI. To analyze the time-dependent effect EGCG and the two synthetic EGCG derivatives compound 23 and compound 30 were administered by intra-peritoneal injection at 50 mg/Kg (n = 15 mice/compound), 30 minutes after the CCI. Another set of animals were used to study the effect of 50 mg/kg of EGCG and the two synthetic EGCG derivatives compound 23 and compound 30 at 14 dpi (n = 15 mice/compound). In all cases, the administration was daily repeated during the first week. All compounds were dissolved in DMSO/saline solution (1:9; v/v), used as vehicle group.
The fatty acid synthase (FASN) activity was assayed in particle-free supernatants by recording spectrophotometrically at 37°C (Lambda Bio 20, Perkin Elmer Boston, MA, USA, EUA) and measuring the decrease of A340 nm due to oxidation of NADPH as previously described. Briefly, mice (n = 5 per group) were sacrificed with sodium pentobarbital (90 mg/kg; i.p.) at 14 and 56 dpi. Spinal cord segments distal to T12 vertebra were quickly removed and snap frozen. The dorsal horn of the spinal cord tissue was homogenized in lysis buffer (250mM sucrose, 20 mM HEPES pH 7.6, 2 mM MgCl2, 1 mM DTT, 1 mM EDTA, 50 mM NaF, 2 mM phenylmethylsulfonyl fluoride (PMSF), 1 μg/μL aprotinin, 1 μg/μL leupeptin, 2 mM sodium orthovanadate). Homogenized samples were centrifuged at 3,500 x g for 10 minutes, and then supernatant was collected and centrifuged at 100,000 x g for 30 minutes to obtain supernatants particle-free. The protein concentrations were determined using the Dc protein assay kit. A 90 μg amount of protein was used for the reaction. A pre-incubation during 15 minutes at 37°C in 0.2 M of potassium phosphate buffer, pH = 7.0 was kept for temperature equilibration. Then, samples were added to the reaction mixture (200 mM potassium phosphate buffer, pH 7.0; 1 mM EDTA; 1 mM dithiothreitol, 30 μM Acetyl-CoA and 0.24 mM NADPH) and then were monitored at 340 nm for 3 minutes to measure background NADPH oxidation. After the addition of 50 μM of malonyl-CoA, the reaction was assayed for 10 minutes to determine FASN-dependent oxidation of NADPH. Rates were corrected with the background rate of NADPH oxidation.

NMDAR2B = test: Western blot of phospho-NMDAR2B and total NMDAR2B in the dorsal horn of the spinal cord; format: in vivo, mice; conditions: 50 mg/Kg, 56 dpi
Protocol: (§1) Mice (n = 5 per group) were sacrificed with sodium pentobarbital (90 mg/kg; i.p.) at 14 and 56 dpi and spinal cord segments distal to T12 vertebra were quickly removed and frozen. For total protein extraction, the dorsal horn of the spinal cord was homogenized in modified RIPA buffer (50 mM Tris–HCl pH 7.5, 1% Triton X-100, 0.5% sodium deoxycholate, 0.2% SDS, 100 mM NaCl, 1 mM EDTA, 2 mM PMSF, 1 μg/μL aprotinin, 1 μg/μL leupeptin and 2 mM sodium orthovanadate).
(§2) Western blotting was performed as previously described. The following primary antibodies were used: anti-FASN (1:1000, BD Bioscience, San Jose, CA); anti-TNF-α, anti-IL-1β, anti-IL-6 and anti-NFκB (all 1:500, Santa Cruz Biotechnology, Santa Cruz, CA); anti-phosphoNMDAR2B (Tyr1472) (1:2000, Affinity Bioreagents, Golden, CO) and anti-NMDAR2B (1:1000, Chemicon, Temecula, CA). Loading control was performed by reprobing the membranes with anti-actin (1:10,000; MP Biochemicals, Aurora, OH), anti-NeuN (1:1,000; Chemicon) or anti-N-cadherin (1:1000, BD Bioscience). Membranes were incubated with the corresponding horseradish peroxidase-conjugated antibody (1:2,000; Promega, Madison, WI). Immunoreactive bands were visualized using the Western Blotting Luminol Reagent and quantified by a computer-assisted densitometer (Gel-Pro Analyzer, version 4, Media Cybernetics).

[2] = Serum stability study, mouse serum; format: in vitro ADME; conditions: mouse (Balb/c) serum, 37°C, 75% serum, 0.5 mM compound; for half-life at 0.5 mM: mouse serum (75% final serum content), read-out: half-life (t1/2) (converted)
Protocol: Peptide stabilities were assayed in diluted serum as previously described. Human serum (Sigma, S7023) or mouse serum (Europa Bioproducts, EQSM-0100) were incubated at 37°C for 10 min. The assay was initiated upon the addition of the test compound solved in PBS to the serum (75% final serum content) for a final compound concentration of 0.5 mM. Then, 500 µL aliquots of the incubations were taken for the following time points: 0, 15, 30, 60, 120 and 240 min. The aliquots were mixed with 750 µL of cold acetonitrile (ACN) and incubated at 4°C for 10 min to precipitate serum proteins. The supernatant was collected for each sample after centrifugation at 39,000 g for 10 min and were immediately analyzed by high performance liquid chromatography-mass spectrometry (HPLC-MS).

FASN = test: Western blot of FASN protein levels in the dorsal horn of the spinal cord; format: in vivo, mice; conditions: 50 mg/Kg, 14 and 56 dpi
Protocol: as §1, §2

FASN activity, % of vehicle group [1]	half-life at 0.5 mM [2] [min]	reduction of FASN activity ([1]; 56 dpi)	Molecule	decrease in mRNA levels of TNF-α, IL-1β and IL-6 compared to vehicle (TNF-α, IL-1β and IL-6; 14 dpi)	phospho-levels of NMDAR2B compared to vehicle group (NMDAR2B)	effect on FASN protein levels (FASN)	decrease in mRNA levels of TNF-α, IL-1β and IL-6 compared to vehicle (TNF-α, IL-1β and IL-6; 56 dpi)	mRNA levels of IL-6 compared to vehicle (TNF-α, IL-1β and IL-6; 56 dpi)	half-life (t1/2) [2]
No differences	18	–	O=C(Oc1cccc2c(OC(=O)c3cc(O)c(O)c(O)c3)cccc12)c1cc(O)c(O)c(O)c1 [Compound 23, 1,5-Bis [(3,4,5-trihydroxybenzoyl)oxy] naphthalene]	no differences	did not induce variations	no effect	–	–	–
61±8 % of vehicle group	24	32±9 % of vehicle	O=C(Oc1ccc(-c2ccc(OC(=O)c3cc(O)c(O)c(O)c3)cc2)cc1)c1cc(O)c(O)c(O)c1 [Compound 30, 4,4′-Bis [(3,4,5-trihydroxybenzoyl)oxy]-1,1′-biphenyl]	~3 fold	specific decrease	no effect	not observed	slight decrease	–

Molecule	FASN activity, % of vehicle group [1]	half-life at 0.5 mM [2] [min]	reduction of FASN activity ([1]; 56 dpi)	decrease in mRNA levels of TNF-α, IL-1β and IL-6 compared to vehicle (TNF-α, IL-1β and IL-6; 14 dpi)	phospho-levels of NMDAR2B compared to vehicle group (NMDAR2B)	effect on FASN protein levels (FASN)	decrease in mRNA levels of TNF-α, IL-1β and IL-6 compared to vehicle (TNF-α, IL-1β and IL-6; 56 dpi)	mRNA levels of IL-6 compared to vehicle (TNF-α, IL-1β and IL-6; 56 dpi)	half-life (t1/2) [2]
epigallocatechin-3-gallate [EGCG]	57±8 % of vehicle group	–	–	~3 fold	did not induce variations	no effect	not observed	–	< 0,1 h
